Experiments:
[1] = molecular target: T1, human sphingosine-1-phosphate receptor 1 (S1P1) (Homo sapiens (Human), UniProt P21453); assay: β-Arrestin2 recruitment assay (PathHunter), S1P1 CHO-K1 cells; assay type: cell-based; conditions: for hS1P1 B-arrestin2 pEC50: β-arrestin2 recruitment, S1P1 CHO-K1 cells; for Emax: CHO-K1, read-out: hS1P1 B-arrestin2 SPAN
Method in brief: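 Enzyme-fragment complementation read-out: agonist-driven β-arrestin2 binding to ProLink-tagged human S1P1 in stable CHO-K1 cells restores β-galactosidase, measured 1 h at room temperature after a 60 min 37° C. compound incubation. Potency as pEC50, efficacy relative to fingolimod (SPAN).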
Target sequence in this assay (P21453 whole entry, looked up, the tested form may be a part): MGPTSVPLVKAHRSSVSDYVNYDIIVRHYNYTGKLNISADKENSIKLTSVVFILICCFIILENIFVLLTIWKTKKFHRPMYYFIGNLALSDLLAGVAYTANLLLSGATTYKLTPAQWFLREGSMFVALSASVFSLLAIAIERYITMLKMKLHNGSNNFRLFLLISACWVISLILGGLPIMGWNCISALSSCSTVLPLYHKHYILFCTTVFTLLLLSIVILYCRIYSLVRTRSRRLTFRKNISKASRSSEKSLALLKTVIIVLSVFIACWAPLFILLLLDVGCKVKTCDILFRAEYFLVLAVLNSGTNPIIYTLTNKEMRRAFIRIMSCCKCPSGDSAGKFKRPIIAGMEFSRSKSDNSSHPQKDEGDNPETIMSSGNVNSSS
Target sequence in this assay (P32121 whole entry partner, looked up, the tested form may be a part): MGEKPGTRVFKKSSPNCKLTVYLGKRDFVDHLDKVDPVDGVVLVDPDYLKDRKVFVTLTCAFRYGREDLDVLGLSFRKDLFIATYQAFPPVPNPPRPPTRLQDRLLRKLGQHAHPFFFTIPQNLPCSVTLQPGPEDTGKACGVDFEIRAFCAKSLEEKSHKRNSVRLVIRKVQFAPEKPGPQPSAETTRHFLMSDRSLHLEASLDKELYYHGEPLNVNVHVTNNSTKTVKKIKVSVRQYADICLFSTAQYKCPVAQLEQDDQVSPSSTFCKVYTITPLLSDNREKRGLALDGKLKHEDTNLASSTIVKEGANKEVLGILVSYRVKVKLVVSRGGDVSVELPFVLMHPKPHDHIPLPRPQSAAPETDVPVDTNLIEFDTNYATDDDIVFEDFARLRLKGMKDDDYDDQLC

[2] = molecular target: T1, human sphingosine-1-phosphate receptor 1 (S1P1); assay: Inhibition of cAMP production (HTRF cAMP HiRange), S1P1 CHO-K1 cells; assay type: cell-based; conditions: for hS1P1 cAMP pEC50: inhibition of cAMP production, S1P1 CHO-K1 cells; for Emax: CHO-K1, read-out: hS1P1 cAMP SPAN
Method in brief: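 CHO-K1 cells stably co-expressing human S1P1 (C-terminal Prolink tag) and EA-β-arrestin2 were grown in AssayComplete Media 6 at 37° C. and 5% CO2, plated, and incubated overnight. Agonist-driven inhibition of intracellular cAMP was read by TR-FRET with the HTRF cAMP HiRange kit on a PheraStar reader. Potency is pEC50, and efficacy (SPAN) is normalized to fingolimod.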
Target sequence in this assay (P21453 whole entry, looked up, the tested form may be a part): as the sequence (P21453 whole entry, looked up, the tested form may be a part) above

[3] = efficacy (SPAN) normalized to fingolimod

Row | Compound | hS1P1 B-arrestin2 pEC50 [1] | hS1P1 cAMP pEC50 [2] | Emax [1, 3] [%] | Emax [2, 3] [%] | hS1P1 B-arrestin2 SPAN [1, 3] | hS1P1 cAMP SPAN [2, 3]
1 | CCC1(CC)CC(=O)c2cc(-c3nc(-c4cncc(C(N)=O)c4)no3)ccc2O1 [Compound 537, 5-(5-(2,2-diethyl-4-oxochroman-6-yl)-1,2,4-oxadiazol-3-yl)nicotinamide] | >5 | >6.5 | – | – | – | –
2 | CCC1(CC)CC(=O)c2cc(-c3nnc(-c4cccnc4)s3)ccc2O1 [Compound 104, 2,2-diethyl-6-(5-(pyridin-3-yl)-1,3,4-thiadiazol-2-yl)chroman-4-one] | <5 | >6.5 | > 75 | > 75 | – | –
3 | CC(C)n1ncc2cc(-c3nc(-c4ccccc4O)no3)ccc21 [Compound 333, 2-(5-(1-isopropyl-1H-indazol-5-yl)-1,2,4-oxadiazol-3-yl)phenol] | <5 | >6.5 | > 75 | > 75 | – | –
4 | CCC1(CC)CC(=O)c2cc(-c3nc(-c4ccc5ncoc5c4)no3)ccc2O1 [Compound 622, 6-(3-(benzo[d]oxazol-6-yl)-1,2,4-oxadiazol-5-yl)-2,2-diethylchroman-4-one] | <5 | >6.5 | – | – | – | –
5 | Cc1ccccc1-c1c[nH]c(-c2ccc3c(c2)nnn3C(C)C)c1 [Compound 516, 5-[4-(2-methylphenyl)-1H-pyrrol-2-yl]-1-(propan-2-yl)-1H-1,2,3-benzotriazole] | >5 | <6.5 | < 75 | < 75 | – | –
6 | CC1(C)CCC2(CC1)CC(=O)c1cc(-c3nc(-c4cccnc4)no3)ccc1O2 [Compound 58, 4′,4′-dimethyl-6-[3-(pyridin-3-yl)-1,2,4-oxadiazol-5-yl]-3,4-dihydrospiro[1-benzopyran-2,1′-cyclohexane]-4-one] | <5 | <6.5 | < 75 | < 75 | – | –
7 | CC(C)n1nnc2cc(-c3nc(-c4ccccn4)co3)ccc21 [Compound 474, 1-(propan-2-yl)-5-[4-(pyridin-2-yl)-1,3-oxazol-2-yl]-1H-1,2,3-benzotriazole] | <5 | <6.5 | > 75 | > 75 | – | –
8 | CCC1(CC)CC(=O)c2cc(-c3nc(-c4cncc(S(N)(=O)=O)c4)no3)ccc2O1 [Compound 603, 5-(5-(2,2-diethyl-4-oxochroman-6-yl)-1,2,4-oxadiazol-3-yl)pyridine-3-sulfonamide] | >5 | >6.5 | – | – | – | –
9 | Cc1ccncc1-c1nc(-c2ccc3c(c2)nnn3C(C)C)no1 [Compound 100, 3-(1-isopropyl-1H-benzo[d][1,2,3]triazol-5-yl)-5-(4-methylpyridin-3-yl)-1,2,4-oxadiazole] | <5 | <6.5 | < 75 | < 75 | – | –
10 | Cc1occc1-c1noc(-c2ccc3c(c2)nnn3CC(C)(C)O)n1 [Compound 492, 2-methyl-1-{5-[3-(2-methylfuran-3-yl)-1,2,4-oxadiazol-5-yl]-1H-1,2,3-benzotriazol-1-yl}propan-2-ol] | <5 | <6.5 | > 75 | > 75 | – | –
11 | CCCCC1CC(=O)c2ccc(-c3nc(-c4cccnc4)no3)cc2O1 (stereo not drawn) [Compound 633, 2-butyl-7-[3-(pyridin-3-yl)-1,2,4-oxadiazol-5-yl]-3,4-dihydro-2H-1-benzopyran-4-one] | <5 | <6.5 | – | – | – | –
12 | Cn1cnc2cc(-c3nnc(-c4ccc(NCC(F)F)c(C#N)c4)o3)ccc21 [Compound 573, 2-[(2,2-difluoroethyl)amino]-5-[5-(1-methyl-1H-1,3-benzodiazol-5-yl)-1,3,4-oxadiazol-2-yl]benzonitrile] | <5 | <6.5 | – | – | – | –
13 | Cc1ccccc1-c1noc(-c2ccc3c(c2)nnn3CC(F)F)n1 [Compound 182, 1-(2,2-difluoroethyl)-5-[3-(2-methylphenyl)-1,2,4-oxadiazol-5-yl]-1H-1,2,3-benzotriazole] | >5 | >6.5 | < 75 | > 75 | – | –
14 | COc1ccccc1-c1noc(-c2ccc3[nH]cnc3c2)n1 [Compound 369, 5-(1H-benzo[d]imidazol-5-yl)-3-(2-methoxyphenyl)-1,2,4-oxadiazole] | <5 | <6.5 | – | – | – | –
15 | CC(C)n1nnc2cc(-c3nc(-c4ccccc4Br)no3)ccc21 [Compound 282, 5-[3-(2-bromophenyl)-1,2,4-oxadiazol-5-yl]-1-(propan-2-yl)-1H-1,2,3-benzotriazole] | >5 | >6.5 | > 75 | > 75 | – | –
16 | COc1ccccc1-c1nnc(-c2ccc3[nH]oc(=O)c3c2)o1 [Compound 339, 5-[5-(2-methoxyphenyl)-1,3,4-oxadiazol-2-yl]-1,3-dihydro-2,1-benzoxazol-3-one] | <5 | <6.5 | – | – | – | –
17 | Cc1cccc(-c2noc(-c3ccc4c(c3)nnn4C3CCCCC3)n2)c1 [Compound 11, 1-cyclohexyl-5-[3-(3-methylphenyl)-1,2,4-oxadiazol-5-yl]-1H-1,2,3-benzotriazole] | <5 | <6.5 | – | – | – | –
18 | CCC1(CC)CC(=O)c2cc(-c3nc(-c4ccc(C(=O)N(C)C)cc4)no3)ccc2O1 [Compound 151, 4-(5-(2,2-diethyl-4-oxochroman-6-yl)-1,2,4-oxadiazol-3-yl)-N,N-dimethylbenzamide] | <5 | <6.5 | – | – | >75 | >75
19 | CC(C)(O)Cn1nnc2cc(-c3nc(-c4cccc5cc[nH]c45)no3)ccc21 [Compound 577, 1-{5-[3-(1H-indol-7-yl)-1,2,4-oxadiazol-5-yl]-1H-1,2,3-benzotriazol-1-yl}-2-methylpropan-2-ol] | >5 | <6.5 | < 75 | < 75 | – | –
20 | COc1cccc(-c2cnc(-c3ccc4c(c3)nnn4C(C)C)s2)c1 [Compound 108, 2-(1-isopropyl-1H-benzo[d][1,2,3]triazol-5-yl)-5-(3-methoxyphenyl)thiazole] | <5 | >6.5 | < 75 | < 75 | – | –
21 | N#Cc1cc(-c2nc(-c3ccc4c(c3)CCC(=O)N4)no2)ccc1N [Compound 345, 2-amino-5-[3-(2-oxo-1,2,3,4-tetrahydroquinolin-6-yl)-1,2,4-oxadiazol-5-yl]benzonitrile] | <5 | <6.5 | < 75 | < 75 | – | –
22 | Cc1nc2cc(-c3nc(-c4ccc5c(c4)nnn5C(C)C)no3)ccc2[nH]1 [Compound 571, 5-[5-(2-methyl-1H-1,3-benzodiazol-5-yl)-1,2,4-oxadiazol-3-yl]-1-(propan-2-yl)-1H-1,2,3-benzotriazole] | >5 | >6.5 | – | – | – | –
23 | O=C1CNc2ccc(-c3nc(-c4cccnc4)no3)cc2N1 [Compound 629, 7-[3-(pyridin-3-yl)-1,2,4-oxadiazol-5-yl]-1,2,3,4-tetrahydroquinoxalin-2-one] | <5 | <6.5 | – | – | – | –
24 | C=CCNc1ccc(-c2nc(-c3ccc4[nH]ccc4c3)no2)cc1C#N [Compound 208, 5-(3-(1H-indol-5-yl)-1,2,4-oxadiazol-5-yl)-2-(allylamino)benzonitrile] | >5 | >6.5 | > 75 | > 75 | – | –
25 | COc1cccc2oc(-c3ccc4c(c3)nnn4C(C)C)nc12 [Compound 424, 2-(1-isopropyl-1H-benzo[d][1,2,3]triazol-5-yl)-4-methoxybenzo[d]oxazole] | <5 | >6.5 | > 75 | > 75 | – | –
26 | CC(C)n1nnc2cc(-c3nc4c(o3)COc3ccccc3-4)ccc21 [Compound 462, 5-{4H-chromeno[4,3-d][1,3]oxazol-2-yl}-1-(propan-2-yl)-1H-1,2,3-benzotriazole] | <5 | >6.5 | > 75 | > 75 | – | –

From patent US11912693B2, “Compounds for modulating S1P1 activity and methods of using the same” (TREVENA, INC., priority 2017, dated 2024)
